From patent publication US8541470B2, “Topical pharmaceutical formulation” (Futura Medical Developments Limited, priority 2007, dated 2013)
Counter-ions that a name gives are not always drawn.

Key:
[1] = topical regional use; relative to piroxicam; cited from earlier work
[2] = saturated solubility in solvents; format: physicochemical

Question: For `O=C(O)Cc1ccccc1Nc1c(Cl)cccc1Cl` [diclofenac], which efficacy index, factor greater than that for piroxicam [1] is on record?
Answer: ~1000

Question: Which “saturated solubility in polyethylene glycol” value ([2]; solvent polyethylene glycol) does the source give for `O=C(O)Cc1ccccc1Nc1c(Cl)cccc1Cl` [diclofenac acid] here?
Answer: 11.18 % w/w

Question: What about the “saturated solubility in propanol or iso-propanol” value ([2]; solvent propanol or iso-propanol) of the same molecule?
Answer: 3-4%

Question: What about the “saturated solubility in pure ethanol” value ([2]; solvent pure ethanol) of the same molecule?
Answer: 5 % w/w

Question: For `O=C(O)Cc1ccccc1Nc1c(Cl)cccc1Cl` [sodium salt of diclofenac acid, diclofenac sodium], which “saturated solubility in propylene glycol” value ([2]; solvent propylene glycol) is on record?
Answer: approximately 50 % w/w
